Experimental findings from US11505543B2, “4-oxo-3,4-dihydroquinazoline compounds as inhibitors of human immunodeficiency virus replication” (VIIV HEALTHCARE UK (NO.5) LIMITED, priority 2018, dated 2022) are described below.

Broadly, the pEC50 is the EC50 on a negative log10 scale, so that one unit is a factor of ten. In general, CC50 refers to the concentration giving 50% cytotoxicity.

In data set [1] the test system is recombinant NL4-3 virus (nef section replaced with Renilla luciferase gene) in MT-2 cells. Put plainly: HIV cell culture assay (antiviral activity, luciferase readout). It counts as cell-based. Particulars: Renilla, NL43, MT-2 cells infected for 4-5 days with recombinant NL4-3 Renilla luciferase virus, serial dilutions of compound. The method in brief: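 Test compound in serial dilution was present while MT-2 cells were infected for 4–5 days with recombinant NL4-3 virus made in 293T cells. Antiviral activity was quantified as Renilla luciferase activity, read with a live-cell substrate. EC50 came from the median-effect equation.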

Data set [2] is described as follows: Compound cytotoxicity, XTT-based colorimetric assay. Particulars: human, uninfected MT2 cells, day 4, XTT. It counts as cell-based. The method in brief:
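Run under the antiviral-assay protocol but without virus. Viability was read on day 4 and CC50 values were derived from the readout.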
Background: Formazan colour is commonly taken as a measure of viable cells.

pEC50: −log10 of the molar value.

As to `O=C(Cn1ccc(C2CC2)n1)N[C@@H](Cc1cc(F)cc(F)c1)c1nc2cc(-c3ccccc3Cl)ccc2c(=O)n1-c1ccc(S(=O)(=O)N2CCOCC2)cc1` [Example 145, (S)-N-(1-(7-(2-chlorophenyl)-3-(4-(morpholinosulfonyl)phenyl)-4-oxo-3,4-dihydroquinazolin-2-yl)-2-(3,5-difluorophenyl)ethyl)-2-(3-cyclopropyl-1H-pyrazol-1-yl)acetamide], the negative-log EC50 (pEC50) in data set [1] was 7.80. In data set [2], the CC50 at 4 day was above 500 nM.

In the case of `Cc1nccnc1-c1ccc2c(=O)n(-c3ccc(Cl)c4c(NS(C)(=O)=O)nn(CC(F)(F)F)c34)c([C@H](Cc3cc(F)cc(F)c3)NC(=O)Cn3nc(C(F)F)c4c3C(F)(F)[C@@H]3C[C@H]43)nc2c1` [Example 165, N-((S)-1-(3-(4-chloro-3-(methylsulfonamido)-1-(2,2,2-trifluoroethyl)-1H-indazol-7-yl)-7-(3-methylpyrazin-2-yl)-4-oxo-3,4-dihydroquinazolin-2-yl)-2-(3,5-difluorophenyl)ethyl)-2-((3bS,4aR)-3-(difluoromethyl)-5,5-difluoro-3b,4,4a,5-tetrahydro-1H-cyclopropa[3,4]cyclopenta[1,2-c]pyrazol-1-yl)acetamide], the pEC50 in data set [1] is 10.30. The molecule further came in with a CC50 at 4 day in data set [2] above 500 nM.

Turning to `Cn1nc(NS(C)(=O)=O)c2c(Cl)ccc(-n3c([C@H](Cc4cc(F)cc(F)c4)NC(=O)Cn4nc(C(F)F)c5c4C(F)(F)[C@@H]4C[C@H]54)nc4cc(-c5ccc(Cl)cc5)ccc4c3=O)c21` (atropisomer, axis not shown; (aR)) [Example 51, N-((S)-1-(3-(4-chloro-1-methyl-3-(methylsulfonamido)-1H-indazol-7-yl)-7-(4-chlorophenyl)-4-oxo-3,4-dihydroquinazolin-2-yl)-2-(3,5-difluorophenyl)ethyl)-2-((3bS,4aR)-3-(difluoromethyl)-5,5-difluoro-3b,4,4a,5-tetrahydro-1H-cyclopropa[3,4]cyclopenta[1,2-c]pyrazol-1-yl)acetamide], the pEC50 in data set [1] is 8.48. Also, the CC50 at 4 day in data set [2] was above 1000 nM.

Consider `Cn1nc(NS(C)(=O)=O)c2c(Cl)ccc(-n3c([C@H](Cc4cc(F)cc(F)c4)NC(=O)Cn4nc(C(F)F)c5c4C(F)(F)[C@@H]4C[C@H]54)nc4cc(-c5ccccc5F)ccc4c3=O)c21` (single isomer, unassigned) [Example 2], for which the negative-log EC50 (pEC50) in data set [1] was 9.28. For the same molecule, in data set [2], the CC50 at 4 day is above 1000 nM.

In the case of `O=C(Cn1ccc(C2CC2)n1)N[C@@H](Cc1cc(F)cc(F)c1)c1nc2cc(-c3ccc(F)cc3F)ccc2c(=O)n1-c1ccc(S(=O)(=O)N2CCOCC2)cc1` [Example 12, (S)-2-(3-cyclopropyl-1H-pyrazol-1-yl)-N-(2-(3,5-difluorophenyl)-1-(7-(2,4-difluorophenyl)-3-(4-(morpholinosulfonyl)phenyl)-4-oxo-3,4-dihydroquinazolin-2-yl)ethyl)acetamide], the pEC50 in data set [1] is 8.08. In data set [2], this molecule gave a 50% cytotoxic concentration (CC50) at 4 day above 1000 nM.

As for `Cn1nc(NS(C)(=O)=O)c2c(Cl)ccc(-n3c([C@H](Cc4cc(F)cc(F)c4)NC(=O)Cn4nc(C(F)F)c5c4C(F)(F)[C@@H]4C[C@H]54)nc4cc(-c5cnc(F)c(F)c5)ccc4c3=O)c21` (atropisomer, axis not shown; (aR)) [Example 25, N-((S)-1-(3-(4-chloro-1-methyl-3-(methylsulfonamido)-1H-indazol-7-yl)-7-(5,6-difluoropyridin-3-yl)-4-oxo-3,4-dihydroquinazolin-2-yl)-2-(3,5-difluorophenyl)ethyl)-2-((3bS,4aR)-3-(difluoromethyl)-5,5-difluoro-3b,4,4a,5-tetrahydro-1H-cyclopropa[3,4]cyclopenta[1,2-c]pyrazol-1-yl)acetamide], the pEC50 in data set [1] was 9.60. The CC50 at 4 day in data set [2] is above 1000 nM.

For the molecule `O=C(Cn1nc(C(F)F)c2c1C(F)(F)[C@@H]1C[C@H]21)N[C@@H](Cc1cc(F)cc(F)c1)c1nc2cc(-c3ccc(F)cc3F)ccc2c(=O)n1-c1ccc(S(=O)(=O)N2CCOCC2)cc1` [Example 22, 2-((3bS,4aR)-3-(difluoromethyl)-5,5-difluoro-3b,4,4a,5-tetrahydro-1H-cyclopropa[3,4]cyclopenta[1,2-c]pyrazol-1-yl)-N-((S)-2-(3,5-difluorophenyl)-1-(7-(2,4-difluorophenyl)-3-(4-(morpholinosulfonyl)phenyl)-4-oxo-3,4-dihydroquinazolin-2-yl)ethyl)acetamide], the negative-log EC50 (pEC50) in data set [1] is 8.10. The same molecule returned a CC50 at 4 day in data set [2] above 1000 nM.

For the molecule `Cc1cc(C)nc(-c2ccc3c(=O)n(-c4ccc(Cl)c5c(NS(C)(=O)=O)nn(C)c45)c([C@H](Cc4cc(F)cc(F)c4)NC(=O)Cn4nc(C(F)(F)F)c5c4C(F)(F)[C@@H]4C[C@H]54)nc3c2)n1` [Example 141, N-((S)-1-(3-(4-chloro-1-methyl-3-(methylsulfonamido)-1H-indazol-7-yl)-7-(4,6-dimethylpyrimidin-2-yl)-4-oxo-3,4-dihydroquinazolin-2-yl)-2-(3,5-difluorophenyl)ethyl)-2-((3bS,4aR)-5,5-difluoro-3-(trifluoromethyl)-3b,4,4a,5-tetrahydro-1H-cyclopropa[3,4]cyclopenta[1,2-c]pyrazol-1-yl)acetamide], the negative-log EC50 (pEC50) in data set [1] was 9.96. Also, in data set [2], the CC50 at 4 day is above 500 nM.

Turning to `Cn1nc(NS(C)(=O)=O)c2c(Cl)ccc(-n3c([C@H](Cc4cc(F)cc(F)c4)NC(=O)Cn4nc(C(F)F)c5c4C(F)(F)[C@@H]4C[C@H]54)nc4cc(-c5cccc(F)c5)ccc4c3=O)c21` (atropisomer, axis not shown; (aR)) [Example 30, N-((S)-1-(3-(4-chloro-1-methyl-3-(methylsulfonamido)-1H-indazol-7-yl)-7-(3-fluorophenyl)-4-oxo-3,4-dihydroquinazolin-2-yl)-2-(3,5-difluorophenyl)ethyl)-2-((3bS,4aR)-3-(difluoromethyl)-5,5-difluoro-3b,4,4a,5-tetrahydro-1H-cyclopropa[3,4]cyclopenta[1,2-c]pyrazol-1-yl)acetamide], in data set [1], the pEC50 is 9.06. The molecule also had a CC50 at 4 day in data set [2] above 1000 nM.

Turning to `Cn1nc(NS(C)(=O)=O)c2c(Cl)ccc(-n3c([C@H](Cc4cc(F)cc(F)c4)NC(=O)Cn4nc(C(F)F)c5c4C(F)(F)[C@@H]4C[C@H]54)nc4cc(-c5ccc(S(=O)(=O)N6CCOCC6)cc5)ccc4c3=O)c21` (atropisomer, axis not shown; (aR)) [Example 91, N-((S)-1-(3-(4-chloro-1-methyl-3-(methylsulfonamido)-1H-indazol-7-yl)-7-(4-(morpholinosulfonyl)phenyl)-4-oxo-3,4-dihydroquinazolin-2-yl)-2-(3,5-difluorophenyl)ethyl)-2-((3bS,4aR)-3-(difluoromethyl)-5,5-difluoro-3b,4,4a,5-tetrahydro-1H-cyclopropa[3,4]cyclopenta[1,2-c]pyrazol-1-yl)acetamide], the pEC50 in data set [1] was 9.41. In data set [2], the CC50 at 4 day is above 1000 nM.

With `O=C(Cn1ccc(C2CC2)n1)N[C@@H](Cc1cc(F)cc(F)c1)c1nc2cc(-c3ccc(-c4ccccc4)cc3)ccc2c(=O)n1-c1ccc(S(=O)(=O)N2CCOCC2)cc1` [Example 148, (S)-N-(1-(7-([1,1′-biphenyl]-4-yl)-3-(4-(morpholinosulfonyl)phenyl)-4-oxo-3,4-dihydroquinazolin-2-yl)-2-(3,5-difluorophenyl)ethyl)-2-(3-cyclopropyl-1H-pyrazol-1-yl)acetamide], the pEC50 in data set [1] was 7.15. Further, in data set [2], the CC50 at 4 day is above 500 nM.

Regarding `CCS(=O)(=O)c1ccccc1-c1ccc2c(=O)n(-c3ccc(Cl)c4c(NS(C)(=O)=O)nn(CC(F)F)c34)c([C@H](Cc3cc(F)cc(F)c3)NC(=O)Cn3nc(C(F)F)c4c3C(F)(F)[C@@H]3C[C@H]43)nc2c1` [Example 177, N-((S)-1-(3-(4-chloro-1-(2,2-difluoroethyl)-3-(methylsulfonamido)-1H-indazol-7-yl)-7-(2-(ethylsulfonyl)phenyl)-4-oxo-3,4-dihydroquinazolin-2-yl)-2-(3,5-difluorophenyl)ethyl)-2-((3bS,4aR)-3-(difluoromethyl)-5,5-difluoro-3b,4,4a,5-tetrahydro-1H-cyclopropa[3,4]cyclopenta[1,2-c]pyrazol-1-yl)acetamide], in data set [1], the negative-log EC50 (pEC50) was 10.28. The same molecule came in with a half-maximal cytotoxic concentration (CC50) at 4 day in data set [2] above 500 nM.

Take `COc1ccc(-c2ccc3c(=O)n(-c4ccc(Cl)c5c(NS(C)(=O)=O)nn(C)c45)c([C@H](Cc4cc(F)cc(F)c4)NC(=O)Cn4nc(C(F)F)c5c4C(F)(F)[C@@H]4C[C@H]54)nc3c2)cn1` (atropisomer, axis not shown; (aR)) [Example 58, N-((S)-1-(3-(4-chloro-1-methyl-3-(methylsulfonamido)-1H-indazol-7-yl)-7-(6-methoxypyridin-3-yl)-4-oxo-3,4-dihydroquinazolin-2-yl)-2-(3,5-difluorophenyl)ethyl)-2-((3bS,4aR)-3-(difluoromethyl)-5,5-difluoro-3b,4,4a,5-tetrahydro-1H-cyclopropa[3,4]cyclopenta[1,2-c]pyrazol-1-yl)acetamide]: the pEC50 in data set [1] is 9.47. The CC50 at 4 day in data set [2] was above 1000 nM.

Turning to `CS(=O)(=O)Nc1nn(CC(F)F)c2c(-n3c([C@H](Cc4cc(F)cc(F)c4)NC(=O)Cn4nc(C(F)F)c5c4C(F)(F)[C@@H]4C[C@H]54)nc4cc(-c5ncccn5)ccc4c3=O)ccc(Cl)c12` (atropisomer, axis not shown; (aR)) [Example 124, N-((S)-1-(3-(4-chloro-1-(2,2-difluoroethyl)-3-(methylsulfonamido)-1H-indazol-7-yl)-4-oxo-7-(pyrimidin-2-yl)-3,4-dihydroquinazolin-2-yl)-2-(3,5-difluorophenyl)ethyl)-2-((3bS,4aR)-3-(difluoromethyl)-5,5-difluoro-3b,4,4a,5-tetrahydro-1H-cyclopropa[3,4]cyclopenta[1,2-c]pyrazol-1-yl)acetamide], in data set [1], the pEC50 was 10.24. Also, the CC50 at 4 day in data set [2] was above 500 nM.
